According to paper PMC9610492, “BRD9 Inhibition by Natural Polyphenols Targets DNA Damage/Repair and Apoptosis in Human Colon Cancer Cells” (Nutrients, 2022):
Like-named read-outs stand apart in the source and are kept apart here.

Legend:
Assay type in all cases: binding
[1] = biological target: T1, BRD9 (bromodomain-containing protein 9) (Homo sapiens, UniProt Q9H8M2); assay: ITC with purified BRD9 (N = […]); BROMOscan […] inhibition at […]
T1 sequence (Q9H8M2 1-597): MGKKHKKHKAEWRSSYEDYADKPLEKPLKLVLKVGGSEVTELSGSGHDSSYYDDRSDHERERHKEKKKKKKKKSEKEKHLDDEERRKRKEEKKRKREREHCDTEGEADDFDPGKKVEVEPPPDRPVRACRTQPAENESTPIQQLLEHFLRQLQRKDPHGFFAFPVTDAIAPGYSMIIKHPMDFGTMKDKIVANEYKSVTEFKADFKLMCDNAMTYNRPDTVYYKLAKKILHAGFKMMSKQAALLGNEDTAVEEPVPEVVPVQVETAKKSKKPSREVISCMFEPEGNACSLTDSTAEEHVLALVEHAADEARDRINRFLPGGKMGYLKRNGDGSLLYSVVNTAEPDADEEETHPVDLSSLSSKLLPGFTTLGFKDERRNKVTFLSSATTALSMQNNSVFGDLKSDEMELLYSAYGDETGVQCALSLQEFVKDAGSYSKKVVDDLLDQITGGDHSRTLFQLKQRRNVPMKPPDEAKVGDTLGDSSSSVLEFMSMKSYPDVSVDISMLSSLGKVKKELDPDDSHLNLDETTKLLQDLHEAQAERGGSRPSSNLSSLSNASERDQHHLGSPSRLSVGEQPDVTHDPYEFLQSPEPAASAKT

[2] = biological target: T1, BRD9 (bromodomain-containing protein 9); assay: as above; remark: listed apart in the source
[3] = biological target: T1, BRD9 (bromodomain-containing protein 9); assay: BROMOscan at […], blinded positive control

In the case of `O=C(CCc1ccc(O)c(O)c1)c1c(O)cc(O)c([C@@H]2O[C@H](CO)[C@@H](O)[C@H](O)[C@H]2O)c1O` [Aspalathin], the Kd [1] is reported as 20 µM.
In the case of `O=c1cc(-c2ccc(O)c(O)c2)oc2c([C@@H]3O[C@H](CO)[C@@H](O)[C@H](O)[C@H]3O)c(O)cc(O)c12` [Orientin], the Kd [2] is reported as 20 µM.
`CCn1cc(-c2cccc(C(F)(F)F)c2)c2sc(C(=N)NC3CCS(=O)(=O)CC3)cc2c1=O` [iBRD9] showed an inhibition at 10 µM [3] of 99%.
